What was measured:
[1] = system: HCT-116, NCI-H460, SUM149PT, MDA-MB-436 cells; assay: Combination viability assay (CTG, Bliss synergy); assay type: cell-based; conditions: control in place of MSC778
Protocol: For combination analysis, cells were seeded in 70 μl of media in 384-well plates pre-dosed with compounds (5-point dose–response matrix) with a D300e digital dispenser (Tecan). Cell proliferation was determined after 7 days using CTG. Analysis was performed with Genedata Screener (Compound Synergy Extension) to determine Synergy scores (Bliss model), using a formulation whereby the Blissexcess is a continuous value and values higher than 2 are usually considered synergistic, and values between 0 and 2 are usually considered additive.

[2] = system: HAP1 USP1KO cells; assay: Cell viability assay (CTG), 7 days; assay type: cell-based; conditions: two independent USP1KO lines
Protocol: (§1) Cells were seeded in 150 μl of media in 96-well plates or in 70 μl of media in 384-well plates pre-dosed with compounds (8–10 points dose response) with a D300e digital dispenser (Tecan) and incubated for 24 h at 37°C and 5% CO2. Cell proliferation at the end of the assay (7 days) was measured using CTG (Promega, G9243). CTG luminescence was normalized to vehicle treated control for each cell line, and data were fitted with a nonlinear regression curve (four parameters) to generate compound sensitivity curves and determine IC50 or EC50 (half maximal inhibitory/effective concentration) values as indicated.

[3] = target: T1, FEN1 (Homo sapiens, UniProt P39748); assay: Fluorescence-based 5′-flap cleavage assay of FEN1 nuclease activity; assay type: biochemical
T1 construct: Full-length FEN1 (1-380) was expressed in Escherichia coli; 6His; made in house; host or cells: Escherichia coli
Protocol: (§2) MSC778 was dissolved in dimethyl sulphoxide (DMSO) to give a 10 mM stock. FEN1/EXO1: compound was dispensed into black 384-shallow well microplates (Greiner #784076). The compound was dispensed as an 11-point dose response with a 3-fold serial dilution from a top concentration of 10 mM (to give a final in-assay concentration of 100 µM). GEN1/XPG: MSC778 was dispensed into black 1536-well plates (Greiner #782076). The compound was dispensed as a 20-point dose response with a 3-fold serial dilution from a top concentration of 10 mM (to give a final in-assay concentration of 100 µM). The volume of DMSO was adjusted to ensure that each well contained 1% (v/v) DMSO in the final assay. […]
(§3) 5 µl (FEN1/EXO1) or 3 µl per well (GEN1/XPG) of stop buffer (20 mM Tris pH 7.5, 300 mM EDTA) was added to all wells, then the plates were read on the CLARIOstar Plus (BMG LABTECH Ltd.) using the Fluorescein (FITC) wavelengths (Ex 483 ± 14, Em 530 ± 30, Dichroic auto/502.5) and auto focal height/gain settings.
(§4) All data analysis was carried out using Genedata Screener software. IC50 values were calculated using the SmartFit function.
A fluorescence-based 5′-flap cleavage assay, in which quenching of the fluorescence of a fluorescein amidite (FAM) moiety is alleviated by nucleolytic cleavage, was used to measure the nuclease activity of FEN1 (Fig. 1B and Supplementary Fig. S1A). […]

[4] = system: SUM149PT 53BP1KO and SHLD2KO cells; assay: Cell viability assay (CTG), 7 days, PARP inhibitor resistant models; assay type: cell-based; conditions: less sensitive than parental
Protocol: as §1

[5] = target: T2, EXO1 (Homo sapiens, UniProt Q9UQ84); assay: Fluorescence-based nuclease activity assay, EXO1; assay type: biochemical; conditions: n = 3, SD = 223; cognate substrate
T2 construct: EXO1 (1-846); purchased Peak Proteins, Macclesfield, UK
Protocol: as §2, with “assay. Control wells containing DMSO alone or inhibitor at sufficient concentration to cause complete inhibition of the reaction were also included.” for “assay.”
as §3, §4

[6] = system: MMEJ (resection dependent reporter); assay: Extrachromosomal MMEJ reporter assay, resection dependent, HEK-293; assay type: cell-based; conditions: Homo sapiens, HEK293, HEK-293, 24 h, read-out: MMEJ inhibition EC50
Protocol: MMEJ resection-independent and MMEJ resection-dependent reporter assays performed as previously described. In brief, HEK-293 cells were resuspended in supplemented SF nucleofection solution (Lonza) containing nanoluciferase DNA substrate and Firefly luciferase plasmid (Promega) at a ratio of 100 μl SF: 1500 ng nanoluciferase substrate: 1000 ng Firefly plasmid: ∼1.5 × 10^6 cells. Cells were electroporated and recovered into fresh media before seeding into a 96-well plate pre-dosed with compounds and DMSO control.
After 24 h, Firefly and NanoLuc levels were detected using the Nano-Glo® Dual-Luciferase® Reporter Assay system (Promega) as per the manufacturer’s instructions. NanoLuc luminescence (reporter) was normalized to Firefly luminescence (control) to determine substrate repair. Percentage repair was calculated relative to the DMSO control.

T1 sequence (P39748 whole entry): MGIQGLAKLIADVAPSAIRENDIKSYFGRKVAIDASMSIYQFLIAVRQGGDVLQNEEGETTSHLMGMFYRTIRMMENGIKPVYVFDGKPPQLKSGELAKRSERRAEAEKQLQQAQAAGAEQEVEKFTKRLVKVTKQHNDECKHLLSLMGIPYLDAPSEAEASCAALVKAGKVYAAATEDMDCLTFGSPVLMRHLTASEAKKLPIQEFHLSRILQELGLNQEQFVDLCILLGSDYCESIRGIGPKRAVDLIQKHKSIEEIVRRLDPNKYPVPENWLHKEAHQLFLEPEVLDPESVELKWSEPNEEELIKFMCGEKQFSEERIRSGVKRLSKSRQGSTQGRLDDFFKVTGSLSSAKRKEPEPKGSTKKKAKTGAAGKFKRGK
T2 sequence (Q9UQ84 whole entry): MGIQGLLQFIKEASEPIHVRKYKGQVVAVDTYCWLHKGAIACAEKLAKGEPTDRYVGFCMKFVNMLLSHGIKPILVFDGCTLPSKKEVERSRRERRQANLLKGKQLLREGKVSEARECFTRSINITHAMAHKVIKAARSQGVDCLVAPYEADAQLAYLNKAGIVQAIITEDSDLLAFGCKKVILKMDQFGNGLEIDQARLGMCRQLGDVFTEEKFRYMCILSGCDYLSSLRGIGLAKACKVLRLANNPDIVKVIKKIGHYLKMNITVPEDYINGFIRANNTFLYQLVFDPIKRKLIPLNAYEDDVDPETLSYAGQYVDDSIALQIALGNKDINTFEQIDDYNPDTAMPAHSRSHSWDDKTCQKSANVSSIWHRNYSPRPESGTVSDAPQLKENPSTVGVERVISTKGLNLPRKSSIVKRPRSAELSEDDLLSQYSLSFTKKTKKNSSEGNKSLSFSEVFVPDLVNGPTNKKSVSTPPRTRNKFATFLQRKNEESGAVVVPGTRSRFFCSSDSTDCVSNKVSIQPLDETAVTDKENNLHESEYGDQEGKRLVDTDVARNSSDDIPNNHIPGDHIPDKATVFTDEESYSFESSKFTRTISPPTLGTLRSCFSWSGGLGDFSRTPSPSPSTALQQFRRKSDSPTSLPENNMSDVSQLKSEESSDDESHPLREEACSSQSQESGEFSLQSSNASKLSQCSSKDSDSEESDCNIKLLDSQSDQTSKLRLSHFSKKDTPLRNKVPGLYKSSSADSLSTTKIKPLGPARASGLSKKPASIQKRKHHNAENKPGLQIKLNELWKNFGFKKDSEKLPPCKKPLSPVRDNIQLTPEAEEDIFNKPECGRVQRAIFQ

SMILES	Combination effects on viability with partner DDR inhibitors [1]	Sensitization of USP1KO cell lines compared to isogenic HAP1 WT cells [2]	Potency on FEN1 nuclease activity relative to MSC781 ([3]; more potent than MSC781)	IC50 ([3]; n = 3, SD = 0.14, cognate 5′ flap substrate)	Change in sensitivity of SUM149PT 53BP1KO and SHLD2KO cells versus parental cells [4]	IC50 [5]	EC50 [6]
C[C@@H](Oc1nn2c(c(O)c1=O)C(=O)N1CCOC[C@@H]1C2)c1ccc2ccc(Cl)cc2c1 [MSC781]	not observed						
C[C@H](Oc1nn2c(c(O)c1=O)C(=O)N1CCOC[C@@H]1C2)c1ccc2ccc(Cl)cc2c1 [MSC778]		3 fold	16 fold	3.2 nM	2 fold	871 nM	840 nM

— PMC12684391, “Mechanistic insights into the monotherapy and combination potential of FEN1 inhibition in cancer therapy” (Nucleic Acids Research, 2025)
